This is an account of results in BindingDB's records for doi:10.1016/j.bmc.2017.12.033 (University of Messina, 2018).

For orientation: EC50 means the midpoint of the concentration-response curve.

Experiment [1] is described as follows: Inhibition of reverse transcriptase L100I mutant in HIV1 infected in human MT4 cells assessed as protection against virus induced cytotoxicity after 5 days by MTT assay. In general terms: Tetrazolium assays rely on reduction of a dye to a coloured formazan, in cell work by metabolically active cells.
The nature of experiment [2]: Inhibition of reverse transcriptase K103N/Y181C double mutant in HIV1 infected in human MT4 cells assessed as protection against virus induced cytotoxicity after 5 days by MTT assay.
A short description of experiment [3]: Inhibition of reverse transcriptase E138K mutant in HIV1 infected in human MT4 cells assessed as protection against virus induced cytotoxicity after 5 days by MTT assay.
Experiment [4] in a line: Inhibition of reverse transcriptase K103N mutant in HIV1 infected in human MT4 cells assessed as protection against virus induced cytotoxicity after 5 days by MTT assay.
Experiment [5] can be described thus: Inhibition of reverse transcriptase Y188L mutant in HIV1 infected in human MT4 cells assessed as protection against virus induced cytotoxicity after 5 days by MTT assay.
Experiment [6] is described as follows: Inhibition of reverse transcriptase Y181C mutant in HIV1 infected in human MT4 cells assessed as protection against virus induced cytotoxicity after 5 days by MTT assay.
Experiment [7] in a line: Inhibition of reverse transcriptase F227L/V106A double mutant in HIV1 infected in human MT4 cells assessed as protection against virus induced cytotoxicity after 5 days by MTT assay.

`Cc1cc(C)cc(S(=O)(=O)n2c(SCC(=O)Nc3ccc(S(N)(=O)=O)cc3)nc3ccccc32)c1`: the EC50 was 73 nM in experiment [1]; over 27200 nM in experiment [2]; 60 nM in experiment [3]; 670 nM in experiment [4]; 1560 nM in experiment [5]; over 27200 nM in experiment [6]. In addition, in experiment [7], the EC50 stood at 1580 nM.

Turning to `COC(=O)c1ccc(NC(=O)CSc2nc3ccccc3n2S(=O)(=O)c2cc(C)cc(C)c2)cc1`, the EC50 in experiment [1] is 170 nM; in experiment [2], over 8360 nM; in experiment [3], 160 nM; in experiment [4], 960 nM; in experiment [5], over 8360 nM; in experiment [6], over 8360 nM. Besides, in experiment [7], the EC50 was over 8360 nM.

For the molecule `Cc1cc(C)cc(S(=O)(=O)n2c(SCC(=O)Nc3ccc(S(C)(=O)=O)cc3)nc3ccccc32)c1`, the EC50 in experiment [1] is 88 nM; in experiment [2], over 10600 nM; in experiment [3], 150 nM; in experiment [4], 1190 nM; in experiment [5], over 10600 nM; in experiment [6] it was over 10600 nM. Besides, the EC50 in experiment [7] was over 770 nM.

Regarding `Cc1cc(C)cc(S(=O)(=O)n2c(SCC(=O)Nc3ccc(C(=O)O)cc3)nc3ccccc32)c1`, the EC50 was 1820 nM in experiment [1]; over 124000 nM in experiment [2]; 1350 nM in experiment [3]; 11800 nM in experiment [4]; over 124000 nM in experiment [5]; 23600 nM in experiment [6]. Besides, the EC50 in experiment [7] is over 124000 nM.

For `Cc1cc(C)cc(S(=O)(=O)n2c(OCC(=O)Nc3ccc(S(C)(=O)=O)cc3Cl)nc3ccccc32)c1`, the EC50 is 290 nM in experiment [1]; 670 nM in experiment [3]; over 33900 nM in experiment [4]; over 228000 nM in experiment [5]; 890 nM in experiment [6]; 1820 nM in experiment [7].

As for `Cc1ccc(NC(=O)CSc2nc3ccccc3n2S(=O)(=O)c2cc(C)cc(C)c2)cc1`, the EC50 in experiment [1] is 240 nM; in experiment [2] it was over 3130 nM; in experiment [3], 160 nM; in experiment [4] it was over 3130 nM; in experiment [5], over 3130 nM; in experiment [6], over 3130 nM. For the same molecule, the EC50 in experiment [7] is over 3130 nM.
